From patent US20090018134A1, “Compounds - 945” (AstraZeneca AB, priority 2007, published 2009)
Like-named read-outs stand apart in the source and are kept apart here.

Biological target: T1, mTOR (Homo sapiens, UniProt P42345)
T1 construct: FLAG; made in house
Test: In Vitro mTOR Kinase Assay (Echo), Test (a)(ii)
Type: biochemical
Procedure, shortened: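 AlphaScreen read-out: biotinylated substrate phosphorylation was detected with anti-p70 S6K (T389) 1A5 antibody, Protein A acceptor and streptavidin donor beads after overnight dark incubation at room temperature. Enzyme was FLAG-mTOR 1362-2549 from stable HEK293 cells.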

[1] = table of enzyme assay Test (a)(ii), read-out: Test (a)(ii) IC50
[2] = read-out: mTOR Kinase Assay (Echo)

T1 sequence (P42345 1362-2549): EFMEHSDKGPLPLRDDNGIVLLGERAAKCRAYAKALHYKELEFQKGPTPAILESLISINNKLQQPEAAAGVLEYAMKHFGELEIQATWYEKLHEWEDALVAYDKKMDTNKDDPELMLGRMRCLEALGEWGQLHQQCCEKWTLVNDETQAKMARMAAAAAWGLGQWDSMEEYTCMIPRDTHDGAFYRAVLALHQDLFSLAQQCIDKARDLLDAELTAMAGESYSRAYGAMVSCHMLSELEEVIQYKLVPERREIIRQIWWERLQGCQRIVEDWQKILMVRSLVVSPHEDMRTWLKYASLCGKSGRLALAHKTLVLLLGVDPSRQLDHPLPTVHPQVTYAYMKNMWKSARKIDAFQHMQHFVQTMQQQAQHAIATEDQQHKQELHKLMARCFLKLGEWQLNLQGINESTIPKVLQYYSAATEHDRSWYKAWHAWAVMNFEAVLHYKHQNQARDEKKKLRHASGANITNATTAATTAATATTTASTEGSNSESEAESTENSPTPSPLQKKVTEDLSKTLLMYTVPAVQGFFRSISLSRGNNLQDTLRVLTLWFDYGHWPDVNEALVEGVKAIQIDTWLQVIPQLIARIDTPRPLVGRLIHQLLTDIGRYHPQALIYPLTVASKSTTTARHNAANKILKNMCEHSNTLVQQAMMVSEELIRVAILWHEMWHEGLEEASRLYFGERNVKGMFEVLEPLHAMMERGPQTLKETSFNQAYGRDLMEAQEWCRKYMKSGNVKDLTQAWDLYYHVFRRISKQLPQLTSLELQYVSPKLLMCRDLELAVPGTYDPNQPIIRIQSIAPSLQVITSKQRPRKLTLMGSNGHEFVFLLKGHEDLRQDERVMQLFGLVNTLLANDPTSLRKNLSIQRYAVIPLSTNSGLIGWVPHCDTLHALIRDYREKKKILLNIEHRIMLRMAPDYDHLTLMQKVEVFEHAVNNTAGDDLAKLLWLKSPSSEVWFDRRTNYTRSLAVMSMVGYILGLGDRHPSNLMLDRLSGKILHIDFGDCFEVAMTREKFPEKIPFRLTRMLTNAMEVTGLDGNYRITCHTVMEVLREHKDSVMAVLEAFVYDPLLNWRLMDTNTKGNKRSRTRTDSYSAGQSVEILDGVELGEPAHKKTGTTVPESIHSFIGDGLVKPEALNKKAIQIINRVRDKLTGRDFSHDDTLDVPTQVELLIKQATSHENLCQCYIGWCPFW

C[C@H]1COCCN1c1cc(C2(S(=O)(=O)c3ccccc3)CC2)nc(-c2ccc(NC(=O)NC3(CO)CC3)cc2)n1 [Example 36bo, 1-[4-[4-[1-(benzenesulfonyl)cyclopropyl]-6-[(3S)-3-methylmorpholin-4-yl]pyrimidin-2-yl]phenyl]-3-[1-(hydroxymethyl)cyclopropyl]urea]
IC50 [1]: 17.6 nM

C[C@H]1COCCN1c1cc(C2(S(=O)(=O)c3ccc(F)cc3)CCC2)nc(-c2ccc(NC(=O)NCCO)cc2)n1 [Example 65b, 1-[4-[4-[1-(4-fluorophenyl)sulfonylcyclobutyl]-6-[(3S)-3-methylmorpholin-4-yl]pyrimidin-2-yl]phenyl]-3-(2-hydroxyethyl)urea]
IC50 [1]: 3.42 nM

C[C@H]1COCCN1c1cc(C2(S(C)(=O)=O)CC2)nc(-c2ccc(NC(=O)Nc3nccs3)cc2)n1 [Example 36ay, 1-[4-[4-[(3S)-3-methylmorpholin-4-yl]-6-(1-methylsulfonylcyclopropyl)pyri-midin-2-yl]phenyl]-3-(1,3-thiazol-2-yl)urea]
IC50 [1]: 1.17 nM

CCNC(=O)Nc1ccc(-c2nc(N3CCOC[C@@H]3C)cc(C3(S(=O)(=O)c4ccc(C#N)cc4)CC3)n2)cc1 [Example 77b, 3-[4-[4-[1-(4-cyanophenyl)sulfonylcyclopropyl]-6-[(3S)-3-methylmorpholin-4-yl]pyrimidin-2-yl]phenyl]-1-ethylurea]
IC50 [1]: 8.6 nM

C[C@H]1COCCN1c1cc(C2(S(=O)(=O)c3ccc(F)cc3)CC2)nc(-c2ccc(NC(=O)NC3CC3)cc2)n1 [Example 8b, 3-cyclopropyl-1-[4-[4-[1-(4-fluorophenyl)sulfonylcyclopropyl]-6-[(3S)-3-methylmorpholin-4-yl]pyrimidin-2-yl]phenyl]urea]
IC50 [2]: 1.23 nM

C[C@H]1COCCN1c1cc(C2(S(=O)(=O)c3ccccc3)CCCC2)nc(-c2ccc(NC(=O)NCCCO)cc2)n1 [Example 36by, 1-[4-[4-[1-(benzenesulfonyl)cyclopentyl]-6-[(3S)-3-methylmorpholin-4-yl]pyrimidin-2-yl]phenyl]-3-(3-hydroxypropyl)urea]
IC50 [1]: 12 nM

C[C@H]1COCCN1c1cc(C2(S(C)(=O)=O)CCC2)nc(-c2ccc(NC(=O)Nc3ccccn3)cc2)n1 [Example 5l, 1-[4-[4-[(3S)-3-methylmorpholin-4-yl]-6-(1-methylsulfonylcyclobutyl)pyrimidin-2-yl]phenyl]-3-pyridin-2-yl-urea]
IC50 [2]: 0.248 nM | IC50 [1]: 0.237 nM

C[C@H]1COCCN1c1cc(C2(S(C)(=O)=O)CC2)nc(-c2ccc(NC(=O)NCC(F)F)cc2)n1 [Example 64ab, 3-(2,2-difluoroethyl)-1-[4-[4-[(3S)-methylsulfonylcyclopropyl)pyrimi-din-2-yl]phenyl]urea]
IC50 [1]: 9.4 nM

C[C@H]1COCCN1c1cc(C2(S(=O)(=O)c3ccc(F)cc3)CCC2)nc(-c2ccc(NC(=O)NC(C)(C)CO)cc2)n1 [Example 65c, 1-[4-[4-[1-(4-fluorophenyl)sulfonylcyclobutyl]-6-[(3S)-3-methylmorpholin-4-yl]pyrimidin-2-yl]phenyl]-3-(1-hydroxy-2-methylpropan-2-yl)urea]
IC50 [1]: 15.1 nM

CNC(=O)Nc1ccc(-c2nc(N3CCOC[C@@H]3C)cc(C3(S(=O)(=O)c4nc(C)cs4)CC3)n2)cc1 [Example 25i, 3-methyl-1-[4-[4-[(3S)-3-methylmorpholin-4-yl]-6-[1-[(4-methyl-1,3-thiazol-2-yl)sulfonyl]cyclopropyl]pyrimidin-2-yl]phenyl]urea]
IC50 [1]: 1 nM

C[C@H]1COCCN1c1cc(C2(S(=O)(=O)c3ccccn3)CCC2)nc(-c2ccc(NC(=O)NCc3ncc[nH]3)cc2)n1 [Example 36ak, 3-(1H-imidazol-2-ylmethyl)-1-[4-[4-[(3S)-3-methylmorpholin-4-yl]-6-(1-pyridin-2-ylsulfonylcyclobutyl)pyrimidin-2-yl]phenyl]urea]
IC50 [1]: 2.45 nM

O=C(NCCCO)Nc1ccc(-c2nc(N3CCOCC3)cc(C3(S(=O)(=O)C4CC4)CC3)n2)cc1 [Example 13h, 1-[4-[4-(1-cyclopropylsulfonylcyclopropyl)-6-morpholin-4-ylpyrimidin-2-yl]phenyl]-3-(3-hydroxypropyl)urea]
IC50 [1]: 10.6 nM

C[C@H]1COCCN1c1cc(C2(S(=O)(=O)c3ccc(F)c(Cl)c3)CC2)nc(-c2ccc(NC(=O)Nc3cnn(C)c3)cc2)n1 [Example 95g, 1-[4-[4-[1-(3-chloro-4-fluorophenyl)sulfonyl-cyclopropyl]-6-[(3S)-3-methylmorpholin-4-yl]pyrimidin-2-yl]phenyl]-3-(1-methylpyrazol-4-yl)urea]
IC50 [1]: 16.4 nM

C[C@H]1COCCN1c1cc(C2(S(=O)(=O)c3ccccc3C(F)(F)F)CC2)nc(-c2ccc(NC(=O)Nc3ccccn3)cc2)n1 [Example 10b, 1-[4-[4-[(3S)-3-methylmorpholin-4-yl]-6-[1-[2-(trifluoromethyl)phenyl]sulfonylcyclopropyl]pyrimidin-2-yl]phenyl]-3-pyridin-2-yl-urea]
IC50 [2]: 26.6 nM

CNC(=O)Nc1ccc(-c2nc(N3CCOC[C@@H]3C)cc(C3(S(=O)(=O)c4cc(F)ccc4C)CC3)n2)cc1 [Example 61, 1-[4-[4-[1-(5-Fluoro-2-methylphenyl)sulfonylcyclopropyl]-6-[(3S)-3-methylmorpholin-4-yl]pyrimidin-2-yl]phenyl]-3-methylurea]
IC50 [1]: 26.9 nM

CC(C)NC(=O)Nc1ccc(-c2nc(N3CCOC[C@@H]3C)cc(C3(S(=O)(=O)C4CCCC4)CC3)n2)cc1 [Example 9d]
IC50 [2]: 15.1 nM

CNC(=O)Nc1ccc(-c2nc(N3CCOCC3)cc(C3(S(=O)(=O)c4ccccc4)CC3)n2)cc1 [Example 36df, 3-[4-[4-[1-(benzenesulfonyl)cyclopropyl]-6-morpholin-4-ylpyrimidin-2-yl]phenyl]-1-methylurea]
IC50 [1]: 7.12 nM

CCCNC(=O)Nc1ccc(-c2nc(N3CCOC[C@@H]3C)cc(C3(S(=O)(=O)c4ccccn4)CC3)n2)cc1 [Example 28h, 3-[4-[4-[(3S)-3-methylmorpholin-4-yl]-6-(1-pyridin-2-ylsulfonylcyclopropyl)pyrimidin-2-yl]phenyl]-1-propylurea]
IC50 [1]: 0.93 nM

C[C@H]1COCCN1c1cc(C2(S(=O)(=O)CCCO)CC2)nc(-c2ccc(NC(=O)Nc3ccc(C(F)(F)F)cc3)cc2)n1 [Example 31h, 1-[4-[4-[1-(3-hydroxypropylsulfonyl)cyclopropyl]-6-[(3S)-3-methylmorpholin-4-yl]pyrimidin-2-yl]phenyl]-3-[4-(trifluoromethyl)phenyl]urea]
IC50 [1]: 0.209 nM

CCNC(=O)Nc1ccc(-c2nc(N3CCOC[C@@H]3C)cc(C3(S(=O)(=O)C4CCCCC4)CC3)n2)cc1 [Example 26b, 3-[4-[4-(1-cyclohexylsulfonylcyclopropyl)-6-[(3S)-3-methylmorpholin-4-yl]pyrimidin-2-yl]phenyl]-1-ethylurea]
IC50 [1]: 3.9 nM

C[C@H]1COCCN1c1cc(C2(S(=O)(=O)c3cc(F)ccc3F)CC2)nc(-c2ccc(NC(=O)NCCO)cc2)n1 [Example 60b, 1-[4-[4-[1-(2,5-difluorophenyl)sulfonylcyclopropyl]-6-[(3S)-3-methylmorpholin-4-yl]pyrimidin-2-yl]phenyl]-3-(2-hydroxyethyl)urea]
IC50 [1]: 8.62 nM

C[C@H]1COC[C@H](C)N1c1cc(C2(S(=O)(=O)C3CC3)CC2)nc(-c2ccc(NC(=O)NCCO)cc2)n1 [Example 92f, 1-[4-[4-(1-cyclopropylsulfonylcyclopropyl)-6-[(3S,5S)-3,5-dimethylmorpholin-4-yl]pyrimidin-2-yl]phenyl]-3-(2-hydroxyethyl)urea]
IC50 [1]: 6.25 nM

C[C@H]1COCCN1c1cc(C2(S(=O)(=O)c3nccs3)CC2)nc(-c2ccc(NC(=S)NCCO)cc2)n1 [Example 67, 3-(2-Hydroxyethyl)-1-[4-[4-[(3S)-3-methylmorpholin-4-yl]-6-[1-(1,3-thiazol-2-ylsulfonyl)cyclopropyl]pyrimidin-2-yl]phenyl]thiourea]
IC50 [1]: 1 nM

C[C@H]1COCCN1c1cc(C2(S(=O)(=O)c3ccc(Cl)cc3)CC2)nc(-c2ccc(NC(=O)NCCCO)cc2)n1 [Example 27l, 1-[4-[4-[1-(4-chlorophenyl)sulfonylcyclopropyl]-6-[(3S)-3-methylmorpholin-4-yl]pyrimidin-2-yl]phenyl]-3-(3-hydroxypropyl)urea]
IC50 [1]: 1.12 nM

C[C@H]1COCCN1c1cc(C2(S(=O)(=O)c3ccccc3F)CC2)nc(-c2ccc(NC(=O)NCCF)cc2)n1 [Example 58c, 3-(2-fluoroethyl)-1-[4-[4-[1-(2-fluorophenyl)sulfonylcyclopropyl]-6-[(3S)-3-methylmorpholin-4-yl]pyrimidin-2-yl]phenyl]urea]
IC50 [1]: 3.27 nM

C[C@H]1COCCN1c1cc(C2(S(=O)(=O)C3CCOC3)CC2)nc(-c2ccc(NC(=O)NCCO)cc2)n1 (stereo partly drawn) [Example 94j, 3-(2-hydroxyethyl)-1-[4-[4-[(3S)-3-methylmorpholin-4-yl]-6-[1-(oxolan-3-ylsulfonyl)cyclopropyl]pyrimidin-2-yl]phenyl]urea]
IC50 [1]: 6.05 nM

C[C@H]1COCCN1c1cc(C2(S(=O)(=O)CCC(C)(C)O)CC2)nc(-c2ccc(NC(=O)NC3CC3)cc2)n1 [Example 79, 3-Cyclopropyl-1-[4-[4-[1-(3-hydroxy-3-methylbutyl)sulfonylcyclopropyl]-6-[(3S)-3-methylmorpholin-4-yl]pyrimidin-2-yl]phenyl]urea]
IC50 [1]: 18.6 nM

CCNC(=O)Nc1ccc(-c2nc(N3CCOC[C@@H]3C)cc(C3(S(=O)(=O)CCCO)CCC3)n2)cc1 [Example 43j, 1-ethyl-3-[4-[4-[1-(3-hydroxypropylsulfonyl)cyclobu-tyl]-6-[(3S)-3-methylmorpholin-4-yl]pyrimidin-2-yl]phenyl]urea]
IC50 [1]: 12 nM

C[C@H]1COCCN1c1cc(C2(S(=O)(=O)c3nccs3)CCC2)nc(-c2ccc(NC(=O)NCCO)cc2)n1 [Example 98k, 3-(2-hydroxyethyl)-1-[4-[4-[(3S)-3-methylmorpholin-4-yl]-6-[1-(1,3-thiazol-2-ylsulfonyl)cyclobutyl]pyrimidin-2-yl]phenyl]urea]
IC50 [1]: 2.46 nM
